Results published in the kinase profiling compilation of Christmann-Franck et al. (2016).

Experiments:
CDC2L2 (human) = CDC2L2 (human) (UniProt Q9UQ88); assay: KINOMEscan competition binding; settings: compound 10.0 µM
CDK11A (human) = CDK11A (human) (UniProt Q9UQ88); assay: KINOMEscan competition binding; settings: compound 10.0 µM
CDK11B (human) = CDK11B (human) (UniProt P21127); assay: KINOMEscan competition binding; settings: compound 10.0 µM
CSNK2A1 (human) = CSNK2A1 (human) (UniProt P68400); assay: KINOMEscan competition binding; settings: compound 10.0 µM
CSNK2A2 (human) = CSNK2A2 (human) (UniProt P19784); assay: KINOMEscan competition binding; settings: compound 10.0 µM
DAPK1 (human) = DAPK1 (human) (UniProt P53355); assay: KINOMEscan competition binding; settings: compound 10.0 µM
DDR1 (human) = DDR1 (human) (UniProt Q08345); assay: KINOMEscan competition binding; settings: compound 10.0 µM
DDR2 (human) = DDR2 (human) (UniProt Q16832); assay: KINOMEscan competition binding; settings: compound 10.0 µM
FLT1 (human) = FLT1 (human) (UniProt P17948); assay: KINOMEscan competition binding; settings: compound 10.0 µM
FLT4 (human) = FLT4 (human) (UniProt P35916); assay: KINOMEscan competition binding; settings: compound 10.0 µM
HIPK1 (human) = HIPK1 (human) (UniProt Q86Z02); assay: KINOMEscan competition binding; settings: compound 10.0 µM
KDR (human) = KDR (human) (UniProt P35968); assay: KINOMEscan competition binding; settings: compound 10.0 µM
KIT (human) = KIT (human) (UniProt P10721); assay: KINOMEscan competition binding; settings: compound 10.0 µM
[1] = system: KIT (human), P10721 [V559D/T670I]; assay: KINOMEscan competition binding; settings: compound 10.0 µM
[2] = system: KIT (human), P10721 [V559D]; assay: KINOMEscan competition binding; settings: compound 10.0 µM
MAPK8 (human) = MAPK8 (human) (UniProt P45983); assay: KINOMEscan competition binding; settings: compound 10.0 µM
MARK3 (human) = MARK3 (human) (UniProt P27448); assay: KINOMEscan competition binding; settings: compound 10.0 µM
PDGFRA (human) = PDGFRA (human) (UniProt P16234); assay: KINOMEscan competition binding; settings: compound 10.0 µM
PDGFRB (human) = PDGFRB (human) (UniProt P09619); assay: KINOMEscan competition binding; settings: compound 10.0 µM
PHKG1 (human) = PHKG1 (human) (UniProt Q16816); assay: KINOMEscan competition binding; settings: compound 10.0 µM
PIM1 (human) [3] = molecular target: PIM1 (human) (UniProt P11309); assay: KINOMEscan competition binding; settings: compound 10.0 µM
PIM2 (human) [4] = molecular target: PIM2 (human) (UniProt Q9P1W9); assay: KINOMEscan competition binding; settings: compound 10.0 µM
PIM3 (human) = PIM3 (human) (UniProt Q86V86); assay: KINOMEscan competition binding; settings: compound 10.0 µM
PLK4 (human) = PLK4 (human) (UniProt O00444); assay: KINOMEscan competition binding; settings: compound 10.0 µM
RET (human) = RET (human) (UniProt P07949); assay: KINOMEscan competition binding; settings: compound 10.0 µM
[5] = system: RET (human), P07949 [M918T]; assay: KINOMEscan competition binding; settings: compound 10.0 µM
RPS6KA1 KD2 (human) = RPS6KA1 KD2 (human) (UniProt Q15418); assay: KINOMEscan competition binding; settings: compound 10.0 µM
RPS6KA2 KD2 (human) = RPS6KA2 KD2 (human) (UniProt Q15349); assay: KINOMEscan competition binding; settings: compound 10.0 µM
RPS6KA6 KD2 (human) = RPS6KA6 KD2 (human) (UniProt Q9UK32); assay: KINOMEscan competition binding; settings: compound 10.0 µM
SLK (human) = SLK (human) (UniProt Q9H2G2); assay: KINOMEscan competition binding; settings: compound 10.0 µM
STK10 (human) = STK10 (human) (UniProt O94804); assay: KINOMEscan competition binding; settings: compound 10.0 µM
STK17A (human) = STK17A (human) (UniProt Q9UEE5); assay: KINOMEscan competition binding; settings: compound 10.0 µM
STK17B (human) = STK17B (human) (UniProt O94768); assay: KINOMEscan competition binding; settings: compound 10.0 µM
STK24 (human) = STK24 (human) (UniProt Q9Y6E0); assay: KINOMEscan competition binding; settings: compound 10.0 µM
TIE1 (human) = TIE1 (human) (UniProt P35590); assay: KINOMEscan competition binding; settings: compound 10.0 µM
TLK1 (human) = TLK1 (human) (UniProt Q9UKI8); assay: KINOMEscan competition binding; settings: compound 10.0 µM
PIM1 (human) [6] = molecular target: PIM1 (human) (UniProt P11309); assay: SelectScreen, TR FRET
PIM2 (human) [7] = molecular target: PIM2 (human) (UniProt Q9P1W9); assay: SelectScreen, TR FRET

Sequence of PIM1 (human) (P11309 whole entry, looked up): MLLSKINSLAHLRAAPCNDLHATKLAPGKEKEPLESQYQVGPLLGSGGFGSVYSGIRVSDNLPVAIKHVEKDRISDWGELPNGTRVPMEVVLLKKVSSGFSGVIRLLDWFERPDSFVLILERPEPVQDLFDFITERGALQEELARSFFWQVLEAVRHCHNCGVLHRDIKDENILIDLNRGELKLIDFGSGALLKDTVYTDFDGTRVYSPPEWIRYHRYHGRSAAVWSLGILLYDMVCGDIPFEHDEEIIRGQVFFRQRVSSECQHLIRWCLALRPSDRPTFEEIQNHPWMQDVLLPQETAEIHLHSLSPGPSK
Sequence of PIM2 (human) (Q9P1W9 whole entry, looked up): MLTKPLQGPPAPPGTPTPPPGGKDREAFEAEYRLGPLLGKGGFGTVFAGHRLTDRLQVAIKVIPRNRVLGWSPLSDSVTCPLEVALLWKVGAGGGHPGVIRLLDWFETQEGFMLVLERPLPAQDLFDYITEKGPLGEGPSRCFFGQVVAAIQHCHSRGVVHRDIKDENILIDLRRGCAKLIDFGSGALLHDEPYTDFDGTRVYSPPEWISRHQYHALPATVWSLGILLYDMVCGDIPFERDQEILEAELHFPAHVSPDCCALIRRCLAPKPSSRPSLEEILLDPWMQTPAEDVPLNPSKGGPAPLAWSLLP
Sequence of RPS6KA2 KD2 (human) (Q15349 whole entry, looked up): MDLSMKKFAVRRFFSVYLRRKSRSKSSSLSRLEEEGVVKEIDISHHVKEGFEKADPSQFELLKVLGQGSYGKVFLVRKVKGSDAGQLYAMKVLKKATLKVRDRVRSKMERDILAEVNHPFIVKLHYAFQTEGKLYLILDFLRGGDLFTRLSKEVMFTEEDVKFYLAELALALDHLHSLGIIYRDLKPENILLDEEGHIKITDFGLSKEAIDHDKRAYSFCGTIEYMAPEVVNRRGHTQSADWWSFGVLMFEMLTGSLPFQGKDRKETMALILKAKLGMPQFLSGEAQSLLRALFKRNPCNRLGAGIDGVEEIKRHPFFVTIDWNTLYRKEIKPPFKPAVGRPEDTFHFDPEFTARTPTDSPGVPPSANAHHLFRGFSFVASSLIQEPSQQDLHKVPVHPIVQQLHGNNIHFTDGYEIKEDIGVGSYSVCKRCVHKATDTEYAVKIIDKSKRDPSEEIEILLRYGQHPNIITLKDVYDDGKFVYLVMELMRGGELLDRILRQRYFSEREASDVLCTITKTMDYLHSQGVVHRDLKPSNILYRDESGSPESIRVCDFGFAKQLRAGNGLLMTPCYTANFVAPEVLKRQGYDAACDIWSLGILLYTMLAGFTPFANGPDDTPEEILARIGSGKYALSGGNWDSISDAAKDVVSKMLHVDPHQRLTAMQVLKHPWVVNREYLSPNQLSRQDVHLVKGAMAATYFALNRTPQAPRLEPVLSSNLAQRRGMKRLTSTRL
Sequence of TIE1 (human) (P35590 whole entry, looked up): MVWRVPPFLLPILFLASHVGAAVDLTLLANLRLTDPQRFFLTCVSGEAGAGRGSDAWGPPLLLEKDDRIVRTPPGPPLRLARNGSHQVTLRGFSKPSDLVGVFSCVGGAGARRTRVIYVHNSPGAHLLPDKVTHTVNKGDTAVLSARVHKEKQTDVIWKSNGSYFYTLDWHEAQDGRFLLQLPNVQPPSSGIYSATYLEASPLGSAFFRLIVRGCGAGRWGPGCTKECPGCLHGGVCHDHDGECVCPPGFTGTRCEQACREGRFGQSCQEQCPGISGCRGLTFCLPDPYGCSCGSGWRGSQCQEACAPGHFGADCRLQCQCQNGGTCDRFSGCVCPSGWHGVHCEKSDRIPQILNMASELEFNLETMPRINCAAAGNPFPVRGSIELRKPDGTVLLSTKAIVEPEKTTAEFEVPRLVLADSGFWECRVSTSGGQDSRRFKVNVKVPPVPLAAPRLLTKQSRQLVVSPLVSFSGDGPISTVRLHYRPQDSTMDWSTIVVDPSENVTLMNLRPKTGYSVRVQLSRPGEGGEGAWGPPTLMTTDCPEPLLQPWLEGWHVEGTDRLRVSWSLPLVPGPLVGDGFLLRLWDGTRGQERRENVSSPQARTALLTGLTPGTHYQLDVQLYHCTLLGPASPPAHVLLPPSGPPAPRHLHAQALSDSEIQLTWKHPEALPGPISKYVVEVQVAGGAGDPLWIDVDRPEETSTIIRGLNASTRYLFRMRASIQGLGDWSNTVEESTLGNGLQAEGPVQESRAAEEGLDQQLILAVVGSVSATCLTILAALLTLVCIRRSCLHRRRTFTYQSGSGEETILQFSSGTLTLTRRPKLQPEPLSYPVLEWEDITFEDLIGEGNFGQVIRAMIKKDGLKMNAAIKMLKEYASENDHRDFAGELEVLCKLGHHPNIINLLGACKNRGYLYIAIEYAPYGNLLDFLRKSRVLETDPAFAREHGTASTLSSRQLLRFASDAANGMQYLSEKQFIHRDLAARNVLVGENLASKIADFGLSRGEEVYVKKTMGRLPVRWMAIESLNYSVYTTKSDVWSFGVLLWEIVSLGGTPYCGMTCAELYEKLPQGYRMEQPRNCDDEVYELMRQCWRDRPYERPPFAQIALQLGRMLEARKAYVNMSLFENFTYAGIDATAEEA
Sequence of CDK11B (human) (P21127 whole entry, looked up): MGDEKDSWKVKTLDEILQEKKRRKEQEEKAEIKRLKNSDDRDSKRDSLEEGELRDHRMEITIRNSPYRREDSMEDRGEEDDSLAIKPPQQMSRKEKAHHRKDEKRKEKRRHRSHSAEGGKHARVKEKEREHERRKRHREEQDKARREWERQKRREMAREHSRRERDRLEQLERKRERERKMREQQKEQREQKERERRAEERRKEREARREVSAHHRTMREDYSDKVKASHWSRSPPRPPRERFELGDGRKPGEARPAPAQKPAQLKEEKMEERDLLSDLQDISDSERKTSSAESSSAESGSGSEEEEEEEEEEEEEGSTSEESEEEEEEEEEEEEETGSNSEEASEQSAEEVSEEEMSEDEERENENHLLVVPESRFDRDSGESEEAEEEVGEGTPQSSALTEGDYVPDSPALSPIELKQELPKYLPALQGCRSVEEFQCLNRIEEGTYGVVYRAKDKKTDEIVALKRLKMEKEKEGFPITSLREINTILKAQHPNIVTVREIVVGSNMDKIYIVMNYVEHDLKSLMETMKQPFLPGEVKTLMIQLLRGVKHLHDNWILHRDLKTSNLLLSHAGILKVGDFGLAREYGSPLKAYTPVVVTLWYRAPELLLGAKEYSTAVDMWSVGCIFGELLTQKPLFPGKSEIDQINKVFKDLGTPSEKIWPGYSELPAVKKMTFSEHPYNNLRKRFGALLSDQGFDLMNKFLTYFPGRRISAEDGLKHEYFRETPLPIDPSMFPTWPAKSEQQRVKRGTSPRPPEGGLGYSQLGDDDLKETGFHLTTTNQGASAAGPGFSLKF
Sequence of STK17B (human) (O94768 whole entry, looked up): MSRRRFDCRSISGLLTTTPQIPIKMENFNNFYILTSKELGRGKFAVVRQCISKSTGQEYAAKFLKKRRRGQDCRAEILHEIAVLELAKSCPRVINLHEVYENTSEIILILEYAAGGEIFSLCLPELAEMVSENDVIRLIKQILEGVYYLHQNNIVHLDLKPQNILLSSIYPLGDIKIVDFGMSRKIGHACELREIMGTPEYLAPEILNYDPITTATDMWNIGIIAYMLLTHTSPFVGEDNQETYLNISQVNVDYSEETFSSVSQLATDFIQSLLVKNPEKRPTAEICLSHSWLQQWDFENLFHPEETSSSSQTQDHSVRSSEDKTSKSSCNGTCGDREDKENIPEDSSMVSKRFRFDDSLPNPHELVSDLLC
Sequence of CSNK2A2 (human) (P19784 whole entry, looked up): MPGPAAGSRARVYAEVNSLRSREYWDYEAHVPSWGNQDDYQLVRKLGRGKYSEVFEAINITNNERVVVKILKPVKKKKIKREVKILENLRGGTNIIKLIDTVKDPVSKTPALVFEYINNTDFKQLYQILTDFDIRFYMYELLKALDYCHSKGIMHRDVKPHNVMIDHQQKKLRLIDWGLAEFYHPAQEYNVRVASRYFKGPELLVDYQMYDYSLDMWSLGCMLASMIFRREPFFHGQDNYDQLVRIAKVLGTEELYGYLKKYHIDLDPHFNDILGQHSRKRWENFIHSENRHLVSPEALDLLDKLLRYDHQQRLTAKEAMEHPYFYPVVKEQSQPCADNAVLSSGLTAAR
Sequence of PHKG1 (human) (Q16816 whole entry, looked up): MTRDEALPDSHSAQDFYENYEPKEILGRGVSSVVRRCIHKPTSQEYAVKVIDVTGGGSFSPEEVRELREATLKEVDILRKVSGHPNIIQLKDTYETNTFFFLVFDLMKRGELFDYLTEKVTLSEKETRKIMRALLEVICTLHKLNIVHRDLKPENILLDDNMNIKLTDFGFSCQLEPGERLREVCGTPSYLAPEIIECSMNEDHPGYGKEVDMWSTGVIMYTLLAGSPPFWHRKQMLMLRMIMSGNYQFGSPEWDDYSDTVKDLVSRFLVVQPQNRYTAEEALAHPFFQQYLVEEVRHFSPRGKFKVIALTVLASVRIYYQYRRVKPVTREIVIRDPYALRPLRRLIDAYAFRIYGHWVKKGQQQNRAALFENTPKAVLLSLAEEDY
Sequence of STK17A (human) (Q9UEE5 whole entry, looked up): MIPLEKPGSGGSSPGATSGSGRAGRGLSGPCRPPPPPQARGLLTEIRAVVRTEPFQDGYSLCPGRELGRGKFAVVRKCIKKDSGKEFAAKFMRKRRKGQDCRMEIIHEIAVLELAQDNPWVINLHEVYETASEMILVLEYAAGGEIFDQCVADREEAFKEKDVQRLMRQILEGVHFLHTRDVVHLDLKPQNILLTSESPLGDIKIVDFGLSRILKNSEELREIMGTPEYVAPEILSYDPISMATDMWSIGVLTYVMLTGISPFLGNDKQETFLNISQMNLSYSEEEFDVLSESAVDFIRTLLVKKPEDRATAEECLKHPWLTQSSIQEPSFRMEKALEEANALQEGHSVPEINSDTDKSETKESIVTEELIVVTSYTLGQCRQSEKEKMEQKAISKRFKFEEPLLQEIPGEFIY

In the case of `CCN1CCN(Cc2cc(NC(=O)c3cccc4cc(-c5ccc(/C=C6\SC(=O)NC6=O)o5)ccc34)cc(C(F)(F)F)c2)CC1`, the kinase still bound, per cent of control (CDC2L2 (human)) is reported as 18%, the kinase still bound, per cent of control (CDK11A (human)) is reported as 24% and the kinase still bound, per cent of control (CDK11B (human)) is reported as 30%. The kinase still bound, per cent of control (CSNK2A1 (human)) was 4.6%, the kinase still bound, per cent of control (CSNK2A2 (human)) was 6.4% and the kinase still bound, per cent of control (DAPK1 (human)) was 34%. For the same compound, the kinase still bound, per cent of control (DDR1 (human)) was 0.15%, the kinase still bound, per cent of control (DDR2 (human)) was 7.6% and the kinase still bound, per cent of control (FLT1 (human)) was 12%. The kinase still bound, per cent of control (FLT4 (human)) was 5.9%, the kinase still bound, per cent of control (HIPK1 (human)) was 5.4% and the kinase still bound, per cent of control (KDR (human)) was 9%. For the same compound, the kinase still bound, per cent of control (KIT (human)) was 2.6%, the kinase still bound, per cent of control [1] was 2.4% and the kinase still bound, per cent of control [2] was 1.2%. The kinase still bound, per cent of control (MAPK8 (human)) was 32%, the kinase still bound, per cent of control (MARK3 (human)) was 32% and the kinase still bound, per cent of control (PDGFRA (human)) was 0.55%. For the same compound, the kinase still bound, per cent of control (PDGFRB (human)) was 0.25%, the kinase still bound, per cent of control (PHKG1 (human)) was 0% and the kinase still bound, per cent of control (PIM1 (human) [3]) was 11%. For the same compound, the kinase still bound, per cent of control (PIM2 (human) [4]) was 0.4%, the kinase still bound, per cent of control (PIM3 (human)) was 7% and the kinase still bound, per cent of control (PLK4 (human)) was 33%. It also gave a kinase still bound, per cent of control (RET (human)) of 4.6%, a kinase still bound, per cent of control [5] of 3.9% and a kinase still bound, per cent of control (RPS6KA1 KD2 (human)) of 18%. It also gave a kinase still bound, per cent of control (RPS6KA2 KD2 (human)) of 29%, a kinase still bound, per cent of control (RPS6KA6 KD2 (human)) of 20% and a kinase still bound, per cent of control (SLK (human)) of 30%. It also gave a kinase still bound, per cent of control (STK10 (human)) of 0.15%, a kinase still bound, per cent of control (STK17A (human)) of 15% and a kinase still bound, per cent of control (STK17B (human)) of 0.3%. The kinase still bound, per cent of control (STK24 (human)) was 25%, the kinase still bound, per cent of control (TIE1 (human)) was 5.8% and the kinase still bound, per cent of control (TLK1 (human)) was 13%. For the same compound, the IC50 (PIM1 (human) [6]) was 774 nM and the IC50 (PIM2 (human) [7]) was 814 nM.
